Key:
RAW264.7 cells [1] = experiment: Intracellular ROS induced by LPS in RAW264.7 cells (C400 fluorescence, confocal microscopy); format: cell-based, mouse; details: 24 hours
Procedure: More specifically, RAW264.7 cells were incubated in 10% FBS containing α-MEM dissolved in a) 0.12% NaCl, b) 0.12% NaCl+85 ppm NaClO, or c) NIW. The cells were incubated in the presence or absence of E. coli LPS (1 μg/ml) for 24 hours. The cells were stained with Fluorescein-derivative ROS reacting reagent, 5-(and 6)-carboxy-2′,7′-dichlorodihydrofluorescein diacetate (#C400, Molecular Probes). The C400 only reacts with ROS and develops fluorescence emission at a wavelength range of 517-527 nm. The staining pattern was analyzed by 0.3 μm sequential optical sectioning at ×400 or ×1000 magnification with a Leica™ TCS/SP-2 laser scan confocal microscope.

RAW264.7 cells [2] = experiment: IL-1β production by peptidoglycan-stimulated RAW264.7 cells (ELISA); format: cell-based, mouse; details: peptidoglycan 5 μg/ml, 24 hours; 25% NIW, 75% DIW; DH-DIW; NaClO 100 ppm
Procedure: Next, the effects of NIW generated from 0.12% NaCl solution or water containing DH (dissolved hydrogen) on proinflammatory cytokine, IL-1β, production by the RAW264.7 cells in vitro was studied. Briefly, mouse RAW264.7 cells in 96-well tissue culture plates were stimulated with 5 μg/ml of peptidoglycan (Staphylococcus aureus origin, from Sigma) in NIW-based complete medium of α-MEM (25% NIW, 75% DIW) or DIW-based α-MEM (100% DIW). Hydrogen was dissolved in DIW for two days (DH-DIW) or NaClO (100 ppm) was additionally added to DIW. All media used in this assay were supplemented with FBS (10%). After 24 hours of incubation, culture supernatants were collected from the 96-well plates and diluted in an equal volume of PBS containing 0.05% Tween 20 detergent (PBST). A commercially available ELISA kit for IL-1β was employed to measure the concentration of IL-1β in the culture supernatants.

OCl [sodium hypochlorite (NaClO) water, sodium hypochlorite]
LPS-dependent intracellular ROS induction (RAW264.7 cells [1]; E. coli LPS 1 μg/ml): LPS treatment induced intracellular ROS
intracellular ROS in the absence of LPS (RAW264.7 cells [1]; no LPS): did not show intracellular ROS
IL-1β production (RAW264.7 cells [2]): augmented the mitogenic activity of the peptidoglycan

Source: US20070261950A1, “IONIZED WATER AND METHOD OF PRODUCING SAME” (priority 2006, published 2007)
